We go through one compound from US6638530B1, “Benzamide formulation with histone deacetylase inhibitor activity” (Schering Aktiengesellschaft, priority 1999, dated 2003).

The nature of the data set: Solubility of compound 1 in solvent (100 mg blended with 10 ml solvent, supernatant measured by HPLC). Type of data set: physicochemical. To be noted: for solubility thermodynamic: thermodynamic from solid, read-out: Compound 1 concentration; for solubility thermodynamic / Compound 1 concentration: room temperature. The method, then: After thoroughly blending 100 mg of compound 1 with 10 ml each of 0.05 N hydrochloric acid solution, methanol, ethanol, propylene carbonate, polysorbate 80, polyethylene glycol 400, polyethylene glycol 300, glycerin, dimethylacetamide or propylene glycol at room temperature, the supernatant obtained by centrifugal separation of each mixture was separated off and used as a pharmaceutical solution. Comparative control samples were also prepared by thoroughly dissolving 100 mg of compound 1 with 10 ml each of purified water, sodium acetate buffer solution at pH 4.0 or sodium phosphate buffer solution at pH 6.8 at room temperature, and separating off the supernatant obtained by centrifugal separation. […] All of the samples of the present invention contained dissolved compound 1 at a concentration of 5 mg/ml or greater, which is a sufficient concentration for an injection. On the other hand, all of the comparative control samples contained dissolved compound 1 only at a concentration of 0.2 mg/ml or less, and therefore the concentration necessary for an injection could not be guaranteed.

Values after ≈ are worked out from the molar mass of the structure shown. Like-named read-outs stand apart in the source and are kept apart here. Where only a bound is given, the exact number is not on record here.

Regarding `Nc1ccccc1NC(=O)c1ccc(CNC(=O)OCc2cccnc2)cc1` [Compound 1], the “concentration of dissolved compound 1” value is, setting by setting: (all of the comparative control samples) at most 200 µg/mL; (all of the samples of the present invention) at least 5000 µg/mL. Besides, the solubility thermodynamic by setting is: (purified water, solvent: water, comparative control sample) 40 µg/mL (≈ 106 µM); (simulated gastric fluid, solvent: 0.05 N hydrochloric acid solution) 14000 µg/mL (≈ 37200 µM); (sodium acetate buffer solution, aqueous buffer, solvent: sodium acetate buffer, pH 4.0, comparative control sample) 200 µg/mL (≈ 531 µM); (sodium phosphate buffer solution, aqueous buffer, solvent: phosphate buffer, pH 6.8, comparative control sample) 40 µg/mL (≈ 106 µM). In addition, the “Compound 1 concentration” value is above 100 mg/mL (solvent: dimethylacetamide); 5.4 mg/mL (solvent: ethanol); 10.0 mg/mL (solvent: glycerin); 9.9 mg/mL (solvent: methanol); 69.1 mg/mL (solvent: polyethylene glycol 300); 77.7 mg/mL (solvent: polyethylene glycol 400). Moreover, the “Compound 1 concentration” value runs as follows: (solvent: polysorbate 80) 29.9 mg/mL; (solvent: propylene carbonate) 17.5 mg/mL; (solvent: propyleneglycol) 54.6 mg/mL.
